Source: patent US20110251128A1, “THYMOSIN Beta4 PEPTIDES PROMOTE TISSUE REGENERATION” (The Board of Regents of the University of Texas System, priority 2010, published 2011)
Entries after “also recorded” stand apart in the source; their conditions may differ. Where two headings read alike, the source gives them in different places. Residues, ends and D or L forms follow the SMILES beside them. No end group written: not given here.

Assays:
[1] = tested on: C57BL/6J male mice after coronary ligation; assay: Myocardial infarction by LAD coronary ligation in adult mice: echocardiography, scar volume, myocyte size; assay type: in vivo, mouse; details: for side effects: mouse model; for post-ischemic cardiac function, in words: adult mice after coronary ligation
From the text: (§1) Animals and Surgical procedures. Mice: Myocardial infarctions were produced in seventy C57BL/6J male mice at 16 weeks of age (25-30 g) by ligation of the left anterior descending (LAD) coronary artery as described (Garner et al., 2003). All animal protocols were reviewed and approved by the University of Texas Southwestern Medical School Institutional Animal Care Advisory Committee and were in compliance with the rules governing animal use as published by the NIH. Mice were sedated in an isoflurane chamber (5%) for 60 seconds until self-designed coaxial mask could be safely applied. The mask supplied continuous isoflurane (2.0%) and oxygen (98.0%) under positive pressure from a Harvard small animal respirator throughout the procedures. Immediately after ligation mice were injected with 200 ng of peptide in […] or […] PBS in collagen intracardially in the infarction border, and with […] PBS intraperitoneally as described (Bock-Marquette et al., 2004). Intraperitoneal injections were repeated every three days after ligation. Effective doses of the peptides were calculated based on optimal in vitro cell migration effect and on biodistribution calculations of full length TB4 (Mora et al., 1997). The inventors administered buprenorphine (0.05 mg/kg) for post-operative pain control. Hearts were removed 1, 14 and 21 days after ligation and processed for further investigations.
Analysis of cardiac function by echocardiography: Echocardiograms to assess systolic function were performed using M-mode and 2-dimensional measurements as described previously (Garner et al., 2003). The measurements represented the average of six selected cardiac cycles from at least two separate scans performed in random-blind fashion with papillary muscles used as a point of reference for consistency in level of scan. End diastole was defined as the maximal left ventricle (LV) diastolic dimension and end systole was defined as the peak of posterior wall motion. Single outliers in each group were omitted for statistical analysis. Fractional shortening (FS), a surrogate of systolic function, was calculated from LV dimensions as follows: FS=[(EDD−ESD)/EDD]×100%. Ejection fraction (EF) was calculated as follows: EF=[(edd^3−esd^3)/edd^3]×100%. EDD, end diastolic dimension; ESD, end systolic dimension.
Calculation of scar volume and myocyte size: Scar volume was calculated after Masson's trichrome staining in six sections through the heart of each mouse using Openlab 3.03 software (Improvision) similar to previously described (Bock-Marquette et al., 2004). Percent area of collagen deposition was measured on each section in blinded fashion and averaged for each mouse.

adult infarcted pigs = assay: Ischemia reperfusion (acute myocardial infarction) in pigs with retroinfusion of peptides; assay type: in vivo, pig; details: pig model
Protocol: Pigs: German pigs were purchased from the animal research department of the Ludwig-Maximilians-University (Oberschleissheim, Germany). Animal care and all experimental procedures were performed in accordance to the German and NIH animal legislation guidelines and were approved by the Bavarian Animal Care and Use Committee (AZ 55.2-1-54-2531-26/09). All animal experiments were conducted at the Walter Brendel Centre of Experimental Medicine, University of Munich.
Ischemia reperfusion experiments: Pigs (n=5/experimental group) were anesthetized and instrumented as described previously (Hinkel et al., 2008). Briefly, a balloon was placed in the left anterior descending artery (LAD) distal to the bifurcation of the first diagonal branch and inflated for 60 min. Correct localization of the coronary occlusion and patency of the first diagonal branch were ensured by injection fluoroscopy. Regional application of TB4 peptides or saline solution was performed via selective pressure regulated retroinfusion for 10 min into the anterior interventricular vein (AIV) draining the LAD-perfused myocardium (Kupatt et al., 2005).
Global myocardial function: At day 0 before ischemia induction and after 24 h of reperfusion myocardial function was obtained via Millar pressure tip catheter. Therefore the Millar pressure tip catheter was placed in the left ventricle and left ventricular pressure was recorded for off-line analysis.
Regional myocardial function: 24 hours after induction of ischemia, sternotomy was performed and ultrasonic crystals were placed subendocardial into the area at risk, the infracted area as well as into the Cx perfusion area in a standardized manner. Subendocardial segment shortening (SES) was assessed under resting heart rate as well as at 120 and 150 beats/min atrial pacing (for 1 min/each).
Infarct size and local inflammation: For assessment of infarct size methylene blue was injected in the left ventricle for negative staining of the AAR and tetrazolium red was applied into the LAD for viability staining in the infracted area. Thereafter, left ventricle was cut into slices (5 mm thick), and subjected to digital photography. Planimetry of different slices was conducted via ImageJ for assessment of infarct size in % of AAR. Tissue samples from infarct, area at risk and non-ischemic control were harvested for leukocyte recruitment. Myeloperoxidase assays were performed as previously described (Kupatt et al., 2005).

myocardial cells = assay: Beating frequency of myocardial cells in embryonic cardiac explants on collagen gel; assay type: cell-based, mouse; details: for frequency of myocardial beating: 300 ng peptide or 100 ng TB4, normalized to PBS and TB4 controls (TB4 = 100.00); for myocyte beating, effect in words: compared with full-length TB4 or other constructs
Protocol: (§2) In vitro embryonic cardiac cell migration assay. The outflow tract of the heart was dissected from E11.5 wild-type mouse embryos and placed on rat-tail collagen matrix (Roche) endothelial layer facing down as described (Bock-Marquette et al., 2004; Runyan and Markwald, 1983). After 10 h of attachment, three independent explants were incubated with 300 ng of peptide #1-17, 100 ng of TB4, or 3 μl PBS in […] OPTIMEM medium (Invitrogen/Gibco) respectively. Medium and protein were changed every two days. To monitor migration distance photos were taken daily using Nikon DXM1200F microscope at 4× magnification. Cell migration distance was quantified by ImageJ software (http at rsb.info.nih.gov/ij/) in three separate explants and three measurements for each treatment respectively. Beating frequency of myocardial cells was counted three times at 7-15 days of treatment. Calculations were normalized to PBS and TB4 treated positive and negative controls. After 15 days at 37° C. in 5% CO2, explants were fixed in 4% paraformaldehyde in PBS for 10 min at room temperature. Explants were stored at 4° C. in PBS for further immunocytochemical investigations.

[2] = Yang et al., 2004, cited from earlier work
[3] = tested on: embryonic cardiac endothelial cells; assay: In vitro embryonic cardiac cell migration assay on collagen gel (outflow tract explants); assay type: cell-based, mouse; set-up: unit not given here; details: 300 ng peptide or 100 ng TB4 in medium; E11.5 outflow tract explants; results normalized to PBS control (TB4 = 100.00)
Protocol: as §2

[4] = tested on: Wt-1 positive cardiac progenitors; assay: Immunohistochemistry, Wt-1 positive progenitor cells at infarction border; assay type: in vivo, mouse; details: infarction border, two weeks after injections (FIG. 11)
From the text: Animals and Surgical procedures. Mice: Myocardial infarctions were produced in seventy C57BL/6J male mice at 16 weeks of age (25-30 g) by ligation of the left anterior descending (LAD) coronary artery as described (Garner et al., 2003). All animal protocols were reviewed and approved by the University of Texas Southwestern Medical School Institutional Animal Care Advisory Committee and were in compliance with the rules governing animal use as published by the NIH. Mice were sedated in an isoflurane chamber (5%) for 60 seconds until self-designed coaxial mask could be safely applied. The mask supplied continuous isoflurane (2.0%) and oxygen (98.0%) under positive pressure from a Harvard small animal respirator throughout the procedures. […] Effective doses of the peptides were calculated based on optimal in vitro cell migration effect and on biodistribution calculations of full length TB4 (Mora et al., 1997). […]
Immunohistochemistry. Adult mouse cardiac tissue was fixed in 4% paraformaldehyde and sections were analyzed by immunohistochemistry. […] Number of sm a-actin positive capillaries and Wt-1 positive cells were counted at the infarction border zone in high power photographs at all levels of the sections in three peptide, TB4 and PBS treated hearts respectively.

mature coronary vessels = assay: Immunohistochemistry, smooth muscle α-actin positive vessels at infarction border zone; assay type: in vivo, mouse; details: two weeks after treatment, compared to PBS (FIG. 10)
From the text: as §1
Immunohistochemistry. Adult mouse cardiac tissue was fixed in 4% paraformaldehyde and sections were analyzed by immunohistochemistry. Hearts were sectioned at eight levels from the base to the apex. Serial sections were immunostained with primary antibodies against Pecam-1 and Wt-1 (1:50) (Santa Cruz), Smooth muscle a-actin (1:220) (Sigma), Sarcomeric a-actinin (1:200) (Sigma), Connexin43 (1:200) (Invitrogen), pS368-Connexin43 (1:200) (Cell Signaling Technology) as recommended by the manufacturer. Terminal deoxynucleotidyl transferase dUTP nick end labeling (TUNEL) assay was performed using In Situ Cell Detection kit (Roche). Number of sm a-actin positive capillaries and Wt-1 positive cells were counted at the infarction border zone in high power photographs at all levels of the sections in three peptide, TB4 and PBS treated hearts respectively.

LKKTETQEKNPLPSKETIEQEKQAGES [#14]
side effects [1]: did not observe any major side effects
side effects (adult infarcted pigs): did not observe any major side effects

C[C@H](N)C(=O)NCC(=O)N[C@@H](CCC(=O)O)C(=O)N[C@@H](CO)C(=O)O [#17, AGES] (H-AGES-OH)
side effects [1]: did not observe any major side effects
side effects (adult infarcted pigs): did not observe any major side effects

Ac-SDKP (Ac-SDKP-OH; UniProt P62328 2-5, looked up, fragment) [#1, acetylated N-terminal variable domain of TB4]
frequency of myocardial beating (myocardial cells): 45.08+/−2.31 beats/75 sec
myocyte beating, effect in words (myocardial cells): inhibit myocyte beating in vitro
fibrosis, inflammation and coronary vessel growth / angiogenesis [2]: highly angiogenic
post-ischemic cardiac (global) function [2]: did not affect post-ischemic cardiac function; also recorded: did not aid global function
fibrosis, inflammation and coronary vessel growth / angiogenesis ([2]; listed as Ac-SDKP): positive influence
post-ischemic cardiac (global) function ([2]; listed as Ac-SDKP): does not aid post-ischemic cardiac function
endothelial cell migration distance [3]: 116

Ac-SDKPDMox [#3]
post-ischemic cardiac function, in words [1]: does not alter cardiac function
post-ischemic cardiac function, in words ([1]; listed as Ac-SDKPDMox): failed to aid cardiac function
frequency of myocardial beating (myocardial cells): 17.21+/−1.00 beats/75 sec
Wt-1 positive progenitor cells [4]: fails to increase Wt-1 positive progenitor cells
number of mature coronary vessels (mature coronary vessels): fails to alter the number of mature coronary vessels
number of mature coronary vessels (mature coronary vessels; listed as Ac-SDKPDMox): did not initiate vessel growth
endothelial cell migration distance [3]: 70.7

#5: de-acetylated form of the N-terminal variable domain with Met6 (of #2) (SDKPDM; Thymosin beta-4; UniProt P62328 2-7, looked up, fragment)
frequency of myocardial beating (myocardial cells): 66.39+/−3.46 beats/75 sec
endothelial cell migration distance [3]: 139

#2: acetylated N-terminal variable domain with addition of Met6 (Ac-SDKPDM-OH; UniProt P62328 2-7, looked up, fragment)
frequency of myocardial beating (myocardial cells): 10.65+/−1.15 beats/75 sec
myocyte beating, effect in words (myocardial cells): inhibit myocyte beating in vitro

#4: de-acetylated form of the N-terminal variable domain (of #1) (SDKP; Thymosin beta-4; UniProt P62328 2-5, looked up, fragment)
frequency of myocardial beating (myocardial cells): 86.88+/−1.15 beats/75 sec
endothelial cell migration distance [3]: 154

LKKTET [#8]
frequency of myocardial beating (myocardial cells): 87.02+/−16.17 beats/75 sec
myocyte beating, effect in words (myocardial cells): resembled myocyte fibrillation; also recorded: increases beating frequency
endothelial cell migration distance [3]: 13
